In PMC9820345, “Metal Complexes of a 5-Nitro-8-Hydroxyquinoline-Proline Hybrid with Enhanced Water Solubility Targeting Multidrug Resistant Cancer Cells” (International Journal of Molecular Sciences, 2022):
Where two headings read alike, the source gives them in different places.

How the values were obtained:
Colo320 = experiment: In vitro cytotoxicity, Colo320 cells (MTT); assay type: cell-based, human; settings: for IC50: 72 h exposure; for Selectivity ratio IC50 (Colo205)/IC50 (Colo320): calculated from IC50 values in Table 4
From the text: (§1) Cell lines: all cell culture reagents were obtained from Sigma-Aldrich; plasticware was purchased from Sarstedt (Nümbrecht, Germany); Human colon Colo205 (chemo-sensitive, ATCC-CCL-222) and Colo320 (Pgp/MDR1-expressing, doxorubicin-resistant, ATCC-CCL-220.1) adenocarcinoma cell lines were purchased from LGC Promochem, Teddington, UK; MES-SA and MES-SA/Dx5 uterine sarcoma cell lines were obtained from ATCC, where they were characterized by DNA fingerprinting. The expression of the Pgp efflux pump of MES-SA/Dx5 was proven by Western blot analysis in our former report, and was also reported for the Colo320 cells. The MES-SA and MES-SA/Dx5 cells used in this study were previously engineered to express the fluorescent proteins mCherry and eGFP, respectively, by lentiviral transduction.
(§2) The colon adenocarcinoma cells were cultured in RPMI 1640 medium supplemented with 10% heat-inactivated fetal bovine serum, 2 mM L-glutamine, 1 mM sodium pyruvate, and 100 mM HEPES. The cells were incubated at 37 °C, in a 5% CO2, 95% air atmosphere.
(§3) Cytotoxicity assays: The tested compounds were dissolved in PBS buffer to prepare 5 mM stock solutions, which were diluted in complete culture medium.
(§4) In the case of the Colo205 and Colo320 cells, two-fold serial dilutions were prepared in 100 μL medium. The semi-adherent colon adenocarcinoma cells were treated with Trypsin-Versene (EDTA) solution. They were adjusted to a density of 1 × 10^4 cells in 100 μL of RPMI 1640 medium and were added to each well, with the exception of the medium control wells. The final volume of the wells containing compounds and cells was 200 μL. The plates containing Colo205 and Colo320 cells were incubated at 37 °C for 72 h; at the end of the incubation period, 20 μL of 3-(4,5-dimethyl-2-thiazolyl)-2,5-diphenyl-2H-tetrazolium bromide (MTT) solution (from a stock solution of 5 mg/mL) was added to each well. After incubation at 37 °C for 4 h, 100 μL of sodium dodecyl sulfate (SDS) solution (10% in 0.01 M HCI) was added to each well, and the plates were further incubated at 37 °C overnight. Cell growth was determined by measuring the optical density (OD) at 540/630 nm with a Multiskan EX plate reader (Thermo Labsystems, Cheshire, WA, USA).
(§5) Inhibition of the cell growth (expressed as IC50: inhibitory concentration that reduces by 50% the growth of the cells exposed to the tested compounds) was determined from the sigmoid curve where 100 − ((ODsample − ODmedium control)/(ODcell control − ODmedium control)) × 100 values were plotted against the logarithm of compound concentrations. Curves for the data obtained on Colo205 and Colo320 cells were fitted by GraphPad Prism software (2021, Graphpad Software, version 7.00, San Diego, CA, USA) using the sigmoidal dose–response model (comparing variable and fixed slopes). From the MES-SA cell data, the IC50 values were calculated by our custom program, written by J. Sessler in C#. The p values were calculated by Student’s t-test. The IC50 values were always obtained from at least three independent experiments.

[1] = tested on: Staphylococcus aureus (ATCC 25923, methicillin-resistant (MRSA)); experiment: Antibacterial effect, MIC determination; assay type: cell-based; settings: methicillin-resistant S. aureus (MRSA), 18 h, visual inspection, read-out: minimum inhibitory concentration (MIC)
Procedure: (§6) Escherichia coli (ATCC 25922), Klebsiella pneumoniae (ATCC 49618) were used as Gram-negative strains; and Staphylococcus aureus (ATCC 25923, methicillin-resistant (MRSA)), and Enterococcus faecalis (ATCC 29212) strains were applied as Gram-positive bacterial cultures in the experiments. MIC values of the complexes were determined in 96-well plates based on the Clinical and Laboratory Standard Institute guidelines (CLSI guidelines). The stock solutions of the compounds (dissolved in PBS buffer using 5 mM concentration) were diluted in 100 μL of Mueller Hinton Broth. Then, 10^−4 dilution of an overnight bacterial culture in 100 μL of medium was added to each well, with the exception of the medium control wells.

[2] = tested on: Enterococcus faecalis (ATCC 29212); experiment: Antibacterial effect, MIC determination; assay type: cell-based; settings: visual inspection, read-out: minimum inhibitory concentration (MIC)
Procedure: as §6

[3] = tested on: Escherichia coli (ATCC 25922); experiment: Antibacterial effect, MIC determination; assay type: cell-based; settings: visual inspection, read-out: minimum inhibitory concentration (MIC)
Procedure: as §6

[4] = tested on: Klebsiella pneumoniae (ATCC 49618); experiment: Antibacterial effect, MIC determination; assay type: cell-based; settings: visual inspection, read-out: minimum inhibitory concentration (MIC)
Procedure: as §6

Colo205 = experiment: In vitro cytotoxicity, Colo205 cells (MTT); assay type: cell-based, human; settings: 72 h exposure
From the text: as §1, §2, §3, §4
as §5, with “From the MES-SA cell data, the IC50 values were calculated by our custom program, written by J. Sessler in C#. The p values were calculated by Student’s t-test. The IC50 values were always obtained from at least three independent experiments.” left out

MES-SA = experiment: In vitro cytotoxicity, MES-SA cells (fluorescent protein readout); assay type: cell-based, human; settings: 144 h exposure
From the text: as §1
(§7) MES-SA cell lines were maintained in DMEM, supplemented with 10% fetal bovine serum, 5 mmol/L glutamine, and 50 units/mL penicillin and streptomycin. Cells were tested and resulted negative for mycoplasma contamination with the MycoAlert mycoplasma detection Kit (Lonza Group, Basel, Switzerland). One week prior to the cytotoxicity assays, Dx5 eGFP cells were selected in 500 nM doxorubicin for one passage to ensure the overexpression of P-glycoprotein.
as §3
(§8) In the case of the MES-SA and MES-SA/Dx5 cells, cell suspensions of the fluorescent cell lines were pre-mixed in a 1:1 ratio and seeded in 20 µL medium in a density of 2500 cells/well (1250 cells/well each) in a 384-well plate. After an overnight incubation, a serial dilution of the compounds was added to the plate in a final volume of 60 µL. The P-gp inhibitor tariquidar was added to the cells 15 min prior to the test compounds. After 144 h of incubation, plates were measured for the fluorescent intensity of mCherry (EX/EM: 585 nm/610 nm) and eGFP (EX/EM: 485 nm/510 nm). Cell seeding, aspiration of medium, and addition of drugs were performed by a Hamilton StarLet automated liquid handling robot.
as §5

MES-SA/Dx5 = experiment: In vitro cytotoxicity, MES-SA/Dx5 cells (fluorescent protein readout); assay type: cell-based, human; settings: for IC50: 144 h exposure; for Selectivity ratio IC50 (MES-SA)/IC50 (MES-SA/Dx5): calculated from IC50 values in Table 4
From the text: as §1, §7, §3, §8, §5

Row | MIC ([1]; Staphylococcus aureus) | MIC ([2]; ATCC29212, 18 h) | MIC ([3]; ATCC25922, 18 h) | MIC ([4]; ATCC49618, 18 h) | SMILES | IC50 (Colo320) | MIC [1] | MIC ([2]; 18 h) | MIC ([3]; 18 h) | MIC ([4]; 18 h) | IC50 (Colo205) | IC50 (MES-SA) | IC50 (MES-SA/Dx5) | Selectivity ratio IC50 (MES-SA)/IC50 (MES-SA/Dx5) (MES-SA/Dx5) | Selectivity ratio IC50 (Colo205)/IC50 (Colo320) (Colo320) | IC50 (Colo320; Homo sapiens, COLO 320) | IC50 (Colo205; Homo sapiens, COLO 205) | IC50 (MES-SA; Homo sapiens, MES-SA) | IC50 (MES-SA/Dx5; Homo sapiens, MES-SA/Dx5)
1 | – | – | – | – | Cc1ccc(C(C)C)cc1.O=C(O)[C@@H]1CCC[NH+]1Cc1cc([N+](=O)[O-])c2ccc[n+]3c2c1[O][Ru-]3[Cl].[Cl-] [RuCym-HQNO2-L-Pro, [RuCym(HQNO2-L-Pro)Cl]Cl] | > 100 µM | > 100 µM | > 100 µM | > 100 µM | > 100 µM | > 100 µM | 166 ± 37 µM | > 400 µM | ≤ 0.42 | – | – | – | – | –
2 | – | – | – | – | CC1=C(C)[C](C)([Rh]([Cl])[O]c2c(C[NH+]3CCC[C@H]3C(=O)O)cc([N+](=O)[O-])c3cccnc23)C(C)=C1C.[Cl-] [RhCp*-HQNO2-L-Pro, [RhCp*(HQNO2-L-Pro)Cl]Cl] | 29.8 ± 0.2 µM | 50 µM | > 100 µM | > 100 µM | > 100 µM | 35 ± 1 µM | 167 ± 38 µM | 106 ± 8 µM | 1.58 | 1.16 | – | – | – | –
3 | > 100 µM | > 100 µM | > 100 µM | > 100 µM | O=C(O)[C@@H]1CCCN1Cc1cc([N+](=O)[O-])c2cccnc2c1O [HQNO2-L-Pro, (2S)-1-((8-hydroxy-5-nitroquinolin-7-yl)methyl)pyrrolidin-1-ium-2-carboxylate] | – | – | – | – | – | – | – | – | 2.33 | 1.06 | 32.4 ± 0.4 µM | 34 ± 1 µM | 226 ± 17 µM | 97 ± 29 µM
